{"source": "patent US12077555B2", "about": "“STAT degraders and uses thereof” (Kymera Therapeutics, Inc., priority 2019, dated 2024)", "data": [{"target": "STAT3 (Homo sapiens, UniProt P40763)", "sequence (P40763 whole entry)": "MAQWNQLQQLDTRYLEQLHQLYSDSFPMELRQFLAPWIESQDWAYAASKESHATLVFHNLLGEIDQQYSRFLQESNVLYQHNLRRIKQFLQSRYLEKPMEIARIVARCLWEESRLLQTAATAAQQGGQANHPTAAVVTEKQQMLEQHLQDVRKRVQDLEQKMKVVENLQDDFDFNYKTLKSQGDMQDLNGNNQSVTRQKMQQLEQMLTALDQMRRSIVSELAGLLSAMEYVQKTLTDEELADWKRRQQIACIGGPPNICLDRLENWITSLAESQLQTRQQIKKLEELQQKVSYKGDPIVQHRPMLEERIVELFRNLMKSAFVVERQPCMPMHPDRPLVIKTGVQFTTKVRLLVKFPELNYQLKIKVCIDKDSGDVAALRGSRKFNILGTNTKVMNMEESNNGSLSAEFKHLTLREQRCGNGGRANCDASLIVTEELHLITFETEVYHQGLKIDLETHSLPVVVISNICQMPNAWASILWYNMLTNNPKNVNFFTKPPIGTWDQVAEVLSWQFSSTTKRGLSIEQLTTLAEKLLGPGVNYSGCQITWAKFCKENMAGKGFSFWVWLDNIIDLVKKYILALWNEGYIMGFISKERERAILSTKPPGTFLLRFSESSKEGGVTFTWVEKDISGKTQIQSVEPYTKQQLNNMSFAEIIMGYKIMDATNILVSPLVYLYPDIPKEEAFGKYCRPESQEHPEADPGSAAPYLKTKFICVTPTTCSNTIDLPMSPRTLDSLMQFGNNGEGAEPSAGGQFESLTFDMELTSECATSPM", "test": "STAT3 HiBiT degradation assay in transfected A549 cells", "type": "cell-based", "set-up": "expressed in transfected cells; host or cells: A549", "details": "A549, 24 h; read-out: STAT3 HiBiT A549 degradation 24 h: Average external-Abs DC50", "in_short": "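Degradation read as HiBiT-tagged STAT3 luminescence (Nano-Glo lytic reagent, 10 min, room temperature) following 24 h compound treatment of transfected A549 cells at 3-fold, 10 points. Percent remaining signal computed against controls and fitted with a four-parameter logistic; DC50 reported as letter bins (A <0.01 to D >1.0 µM).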", "units": {"DC50": "nM"}, "values": [{"smiles": "Cc1ncsc1-c1ccc([C@H](C)NC(=O)[C@@H]2C[C@@H](O)CN2C(=O)[C@@H](NC(=O)CCCCc2cccc(OC[C@H](CCC(N)=O)NC(=O)[C@@H]3Cc4cccc5c4N3C(=O)[C@@H](NC(=O)c3cc4cc(C(=O)P(=O)(O)O)ccc4[nH]3)CC5)c2)C(C)(C)C)cc1", "note": "[Compound I-211, diammonium 2-[[(2S,11S)-2-[[(2S)-4-carbamoyl-1-[3-(4-[[(2S)-1-[(2S,4R)-4-hydroxy-2-[[(1S)-1-[4-(4-methyl-1,3-thiazol-5-yl)phenyl]ethyl]carbamoyl]pyrrolidin-1-yl]-3,3-dimethyl-1-oxobutan-2-yl]carbamoyl]butyl)phenoxy]butan-2-yl]carbamoyl]-12-oxo-1-azatricyclo[6.4.1.0^[4,13]]trideca-4(13),5,7-trien-11-yl]carbamoyl]-1H-indole-5-carbonylphosphonate]", "DC50": "10 to 100"}, {"smiles": "Cc1ccc(OC[C@H](CCC(N)=O)NC(=O)[C@@H]2Cc3cccc4c3N2C(=O)[C@@H](NC(=O)c2cc3cc(C(=O)P(=O)(O)O)ccc3[nH]2)CC4)cc1CCCCCC(=O)N[C@H](C(=O)N1C[C@H](O)C[C@H]1C(=O)N[C@@H](C)c1ccc(-c2scnc2C)cc1)C(C)(C)C", "note": "[Compound I-212, 2-[[(2S,11S)-2-[[(2S)-4-carbamoyl-1-[3-(5-[[(2S)-1-[(2S,4R)-4-hydroxy-2-[[(1S)-1-[4-(4-methyl-1,3-thiazol-5-yl)phenyl]ethyl]carbamoyl]pyrrolidin-1-yl]-3,3-dimethyl-1-oxobutan-2-yl]carbamoyl]pentyl)-4-methylphenoxy]butan-2-yl]carbamoyl]-12-oxo-1-azatricyclo[6.4.1.0^[4,13]]trideca-4(13),5,7-trien-11-yl]carbamoyl]-1H-indole-5-carbonylphosphonic acid]", "DC50": "10 to 100"}, {"smiles": "Cc1cc(CCCCCC(=O)N[C@H](C(=O)N2C[C@H](O)C[C@H]2C(=O)N[C@@H](C)c2ccc(-c3scnc3C)cc2)C(C)(C)C)cc(OC[C@H](CCC(N)=O)NC(=O)[C@@H]2Cc3cccc4c3N2C(=O)[C@@H](NC(=O)c2cc3cc(C(=O)P(=O)(O)O)ccc3[nH]2)CC4)c1", "note": "[Compound I-213, 2-[[(2S,11S)-2-[[(2S)-4-carbamoyl-1-[3-(5-[[(2S)-1-[(2S,4R)-4-hydroxy-2-[[(1S)-1-[4-(4-methyl-1,3-thiazol-5-yl)phenyl]ethyl]carbamoyl]pyrrolidin-1-yl]-3,3-dimethyl-1-oxobutan-2-yl]carbamoyl]pentyl)-5-methylphenoxy]butan-2-yl]carbamoyl]-12-oxo-1-azatricyclo[6.4.1.0^[4,13]]trideca-4(13),5,7-trien-11-yl]carbamoyl]-1H-indole-5-carbonylphosphonic acid]", "DC50": "< 10"}, {"smiles": "Cc1ccc(CCCCCC(=O)N[C@H](C(=O)N2C[C@H](O)C[C@H]2C(=O)N[C@@H](C)c2ccc(-c3scnc3C)cc2)C(C)(C)C)cc1OC[C@H](CCC(N)=O)NC(=O)[C@@H]1Cc2cccc3c2N1C(=O)[C@@H](NC(=O)c1cc2cc(C(=O)P(=O)(O)O)ccc2[nH]1)CC3", "note": "[Compound I-214, 2-[[(2S,11S)-2-[[(2S)-4-carbamoyl-1-[5-(5-[[(2S)-1-[(2S,4R)-4-hydroxy-2-[[(1S)-1-[4-(4-methyl-1,3-thiazol-5-yl)phenyl]ethyl]carbamoyl]pyrrolidin-1-yl]-3,3-dimethyl-1-oxobutan-2-yl]carbamoyl]pentyl)-2-methylphenoxy]butan-2-yl]carbamoyl]-12-oxo-1-azatricyclo[6.4.1.0^[4,13]]trideca-4(13),5,7-trien-11-yl]carbamoyl]-1H-indole-5-carbonylphosphonic acid]", "DC50": "> 1000"}, {"smiles": "Cc1ncsc1-c1ccc([C@H](C)NC(=O)[C@@H]2C[C@@H](O)CN2C(=O)[C@@H](NC(=O)CCCCCc2cc(OC[C@H](CCC(N)=O)NC(=O)[C@@H]3Cc4cccc5c4N3C(=O)[C@@H](NC(=O)c3cc4cc(C(=O)P(=O)(O)O)ccc4[nH]3)CC5)ccc2F)C(C)(C)C)cc1", "note": "[Compound I-215]", "DC50": "10 to 100"}, {"smiles": "Cc1ncsc1-c1ccc([C@H](C)NC(=O)[C@@H]2C[C@@H](O)CN2C(=O)[C@@H](NC(=O)CCCCCc2cc(F)cc(OC[C@H](CCC(N)=O)NC(=O)[C@@H]3Cc4cccc5c4N3C(=O)[C@@H](NC(=O)c3cc4cc(C(=O)P(=O)(O)O)ccc4[nH]3)CC5)c2)C(C)(C)C)cc1", "note": "[Compound I-216, 2-[[(2S,11S)-2-[[(2S)-4-carbamoyl-1-[3-fluoro-5-(5-[[(2S)-1-[(2S,4R)-4-hydroxy-2-[[(1S)-1-[4-(4-methyl-1,3-thiazol-5-yl)phenyl]ethyl]carbamoyl]pyrrolidin-1-yl]-3,3-dimethyl-1-oxobutan-2-yl]carbamoyl]pentyl)phenoxy]butan-2-yl]carbamoyl]-12-oxo-1-azatricyclo[6.4.1.0^[4,13]]trideca-4(13),5,7-trien-11-yl]carbamoyl]-1H-indole-5-carbonylphosphonic acid]", "DC50": "10 to 100"}, {"smiles": "Cc1ncsc1-c1ccc([C@H](C)NC(=O)[C@@H]2C[C@@H](O)CN2C(=O)[C@@H](NC(=O)CCCCCc2cccc(OC[C@H](CCC(N)=O)NC(=O)[C@@H]3Cc4cccc5c4N3C(=O)[C@@H](NC(=O)c3cc4cc(C(=O)P(=O)(O)O)ccc4[nH]3)CC5)c2F)C(C)(C)C)cc1", "note": "[Compound I-217, 2-[[(2S,11S)-2-[[(2S)-4-carbamoyl-1-[2-fluoro-3-(5-[[(2S)-1-[(2S,4R)-4-hydroxy-2-[[(1S)-1-[4-(4-methyl-1,3-thiazol-5-yl)phenyl]ethyl]carbamoyl]pyrrolidin-1-yl]-3,3-dimethyl-1-oxobutan-2-yl]carbamoyl]pentyl)phenoxy]butan-2-yl]carbamoyl]-12-oxo-1-azatricyclo[6.4.1.0^[4,13]]trideca-4(13),5,7-trien-11-yl]carbamoyl]-1H-indole-5-carbonylphosphonic acid]", "DC50": "< 10"}, {"smiles": "Cc1cc(CO[C@H](C)[C@H](CCC(N)=O)NC(=O)[C@@H]2Cc3cccc4c3N2C(=O)[C@@H](NC(=O)c2cc3cc(C(=O)P(=O)(O)O)ccc3[nH]2)CC4)ccc1CCCCC(=O)N[C@H](C(=O)N1C[C@H](O)C[C@H]1C(=O)N[C@@H](C)c1ccc(-c2scnc2C)cc1)C(C)(C)C", "note": "[Compound I-218, diammonium 2-[[(2S,11S)-2-[[(3S,4R)-1-carbamoyl-4-[[4-(4-[[(2S)-1-[(2S,4R)-4-hydroxy-2-[[(1S)-1-[4-(4-methyl-1,3-thiazol-5-yl)phenyl]ethyl]carbamoyl]pyrrolidin-1-yl]-3,3-dimethyl-1-oxobutan-2-yl]carbamoyl]butyl)-3-methylphenyl]methoxy]pentan-3-yl]carbamoyl]-12-oxo-1-azatricyclo[6.4.1.0^[4,13]]trideca-4(13),5,7-trien-11-yl]carbamoyl]-1H-indole-5-carbonylphosphonate]", "DC50": "< 10"}, {"smiles": "Cc1ncsc1-c1ccc([C@H](C)NC(=O)[C@@H]2C[C@@H](O)CN2C(=O)[C@@H](NC(=O)CCCCCc2cccc(O[C@H](C)[C@H](CCC(N)=O)NC(=O)[C@@H]3Cc4cccc5c4N3C(=O)[C@@H](NC(=O)c3cc4cc(C(=O)P(=O)(O)O)ccc4[nH]3)CC5)c2)C(C)(C)C)cc1", "note": "[Compound I-219, 2-[[(2S,11S)-2-[[(3S,4R)-1-carbamoyl-4-[3-(5-[[(2S)-1-[(2S,4R)-4-hydroxy-2-[[(1S)-1-[4-(4-methyl-1,3-thiazol-5-yl)phenyl]ethyl]carbamoyl]pyrrolidin-1-yl]-3,3-dimethyl-1-oxobutan-2-yl]carbamoyl]pentyl)phenoxy]pentan-3-yl]carbamoyl]-12-oxo-1-azatricyclo[6.4.1.0^[4,13]]trideca-4(13),5,7-trien-11-yl]carbamoyl]-1H-indole-5-carbonylphosphonic acid]", "DC50": "100 to 1000"}, {"smiles": "Cc1ncsc1-c1ccc([C@H](C)NC(=O)[C@@H]2C[C@@H](O)CN2C(=O)[C@@H](NC(=O)CCCCCc2cccc(CNC(=O)[C@H](CCC(N)=O)NC(=O)[C@@H]3Cc4cccc5c4N3C(=O)[C@@H](NC(=O)c3cc4cc(C(=O)P(=O)(O)O)ccc4[nH]3)CC5)c2)C(C)(C)C)cc1", "note": "[Compound I-220, 2-[[(2S,11S)-2-[[(1S)-3-carbamoyl-1-([[3-(5[[(2S)-1-[(2S,4R)-4-hydroxy-2-[[(1S)-1-[4-(4-methyl-1,3-thiazol-5-yl)phenyl]ethyl]carbamoyl]pyrrolidin-1-yl]-3,3-dimethyl-1-oxobutan-2-yl]carbamoyl]pentyl)phenyl]methyl]carbamoyl)propyl]carbamoyl]-12-oxo-1-azatricyclo[6.4.1.0^[4,13]]trideca-4(13),5,7-trien-11-yl]carbamoyl]-1H-indole-5-carbonylphosphonic acid]", "DC50": "100 to 1000"}, {"smiles": "Cc1ncsc1-c1ccc(CNC(=O)[C@@H]2C[C@@H](O)CN2C(=O)[C@@H](NC(=O)CCCCc2cccc(OC[C@H](CCC(N)=O)NC(=O)[C@@H]3Cc4cccc5c4N3C(=O)[C@@H](NC(=O)c3cc4cc(C(=O)P(=O)(O)O)ccc4[nH]3)CC5)c2)C(C)(C)C)cc1", "note": "[Compound I-221]", "DC50": "10 to 100"}, {"smiles": "Cc1ncsc1-c1ccc(CNC(=O)[C@@H]2C[C@@H](O)CN2C(=O)[C@@H](NC(=O)CCCCCc2cccc(CNC(=O)[C@H](CCC(N)=O)NC(=O)[C@@H]3Cc4cccc5c4N3C(=O)[C@@H](NC(=O)c3cc4cc(C(=O)P(=O)(O)O)ccc4[nH]3)CC5)c2)C(C)(C)C)cc1", "note": "[Compound I-222, 2-[[(2S,11S)-2-[[(1S)-3-carbamoyl-1--([[3-(5-[[(2S)-1-[(2S,4R)-4-hydroxy-2-([[4-(4-methyl-1,3-thiazol-5-yl)phenyl]methyl]carbamoyl)pyrrolidin-1-yl]-3,3-dimethyl-1-oxobutan-2-yl]carbamoyl]pentyl)phenyl]methyl]carbamoyl)propyl]carbamoyl]-12-oxo-1-azatricyclo[6.4.1.0^[4,13]]trideca-4(13),5,7-trien-11-yl]carbamoyl]-1H-indole-5-carbonylphosphonic acid]", "DC50": "> 1000"}]}]}
